Measured values taken from US5200329A, “Method of hydroxylating 3-[(4,7-dichlorobenzoxazol-2-yl)methyl]amino-5-ethyl-6-methyl-2-(1H)-pyr idinone by incubation with liver slices” (Merck & Co., Inc., priority 1992, dated 1993).

Key:
[1] = target: T1, recombinant HIV reverse transcriptase (HIV RTR) (Human immunodeficiency virus type 1 group M subtype B, UniProt P04585); experiment: Reverse Transcriptase Assay (incorporation of tritiated deoxyguanosine monophosphate into acid-precipitable cDNA); assay type: biochemical; conditions: poly r(C).oligo d(G)12-18 and dGTP at about Km; 37° C., 45 minutes
T1 construct: recombinant HIV reverse transcriptase (HIV RTR)
Experimental: The assay measures the incorporation of tritiated deoxyguanosine monophosphate by recombinant HIV reverse transcriptase (HIV RTR) (or other RT) into acid-precipitable cDNA at the Km values of dGTP and poly r(C).oligo d(G)12-18.
Thirty uL of a reaction mixture containing equal volumes of: 500 mM Tris.HCl (pH 8.2), 300 mM MgCl2, 1200 mM KCl, 10 mM DTT, 400 μg/mL poly r(c).oligo d(G) [prepared by dissolving 1.5 mg (25 U) poly r(C).oligo d(G) in 1.5 ml sterile distilled H2 O and diluting to 400 μg/ml], 0.1 μCi/μl [^3 H] dGTP, 160 μM dGTP, was added to 10 μl sterile distilled H2 O, and 2.5 μl of potential inhibitor. An aliquot of 10 μL of 5 nM purified HIV RTR was added to initiate thereaction. The mixture was incubated at 37° C. for 45 minutes.
After incubation is complete, the tubes were cooled in ice for 5 minutes. Ice-cold 13% TCA containing 10 mM NaPPi (200 μl) are added and the mixture incubated on ice for 30 minutes. The precipitated cDNA is removed by filtration using presoaked glass filters [TCA, NaPPi ]. The precipitate is then washed with 1N HCl, 10 mM NaPPi.
The filter discs are then counted in a scintillation counter.
Under these conditions [dGTP] and poly r(C).oligo d(G)12-18 each are approximately equal to the appropriate Km value. Approximately 5-6,000 cpm of [^3 H] GMP are incorporated into acid-precipitable material. The RT reaction is concentration- and time-dependent. […] The calculated IC50 value for the compounds (Ia) and (Ib) of this incertion are as follows: […]

[2] = Incubation With Human Liver Slices (metabolite formation by HPLC); assay type: in vitro ADME; conditions: 2.85 μmol compound (II), 1.25 g wet weight liver slices (donor), Williams' Medium E, 37° C., four hours
Experimental: Compound (II) (2.85 μmol) was incubated with liver slices (1.25 g wet weight) from a human donor in 20 ml of Williams' Medium E at 37° C. under an atmosphere of 5% CO2 in air for four hours. The metabolites were extracted into ethyl acetate followed by evaporation of the solvent. The residue was reconstituted in methanol and compared on HPLC with an extract of rat liver slice incubation of compound (II). The HPLC effluents were monitored by a UV-diode array detector, and fractionated for liquid scintillation spectrophotometry.

`Cc1[nH]c(=O)c(NCc2nc3c(Cl)ccc(Cl)c3o2)cc1C(C)O` (racemic) [Ia, 3-[(4,7-dichlorobenzoxazol-2-yl)methylamino]-5-(1-hydroxyethyl)-6-methylpyridin-2(1H)-one] showed an IC50 [1] of 1050 nM.

For `CCc1cc(NCc2nc3c(Cl)ccc(Cl)c3o2)c(O)nc1C` [Compound II, 3-[(4,7-dichlorobenzoxazol-2-yl)-methyl]amino-5-ethyl-6-methyl-2(1H)-pyridinone], the IC50 [1] was 20 nM and the “formation of metabolites indicated by HPLC comparisons of UV and radioactivity profiles” value [2] was “formation of Ia and Ib in the human liver slices incubation”.

`CCc1cc(NCc2nc3c(Cl)ccc(Cl)c3o2)c(=O)[nH]c1CO` [Ib, 3-[(4,7-dichlorobenzoxazole-2-yl)methylamino]-5-ethyl-6-hydroxymethylpyridi n-2(1H)-one] showed an IC50 [1] of 14 nM.
